Broadly, the IC50 is the concentration needed to halve the response being measured. Low values mean higher potency, high ones lower potency. By melting point is commonly meant the temperature, or range, at which the solid turns liquid.

In one data set the target is T1, telomerase (Homo sapiens, UniProt O14746).
T1 construct: telomeric repeats added to an oligonucleotide by telomerase in the cell extract; endogenous in cells; host or cells: SiHa, C33A, CaSki and HeLa cervical carcinoma cell extracts (CHAPS lysis)
Put plainly: Inhibition of telomerase activity by TRAP-assay (telomeric repeat amplification, extracts of cervical carcinoma cell lines SiHa, C33A, CaSki, HeLa). In kind it is biochemical. As to conditions: concentration at which inhibition of telomerase activity is 50%. The procedure:
To test the inhibition of telomerase compounds prepared in this way, we used the method of amplification added telomeric repeats (TRAP-analysis). TRAP-analysis is a standard method for determining the activity of telomerase, due to some modification this method could be semi quantitative. The choice of method for detection of telomerase activity was determined by its wide coverage in the worlds literature, almost sensitivity, as well as the availability of equipment and reagents.
Telomeric repeats amplification protocol can be divided into three main steps: primer extension, amplification of the resulting product (s) and detection. In step lengthening telomeric repeats added to an oligonucleotide by telomerase in the cell extract. Telomerase recognizes it as a substrate (TS). In step of amplification of extension products of TS oligonucleotide by telomerase false signals may appear due to amplification of telomeres of chromosomes possibly have contained in the cell extract. To avoid this, the 5′-end of the oligonucleotide TS has no telomeric sequence, which prevents it to contact with telomeres, but is recognized as a telomerase substrate. Since human telomerase adds a series repeats with six nucleotides, the resulting lengthening of TS oligonucleotide by telomerase set of DNA fragments that differ in length synthesized. […]

`C=CCN1C(=O)/C(=C/c2ccccn2)N=C1SCCSC1=N/C(=C\c2ccccn2)C(=O)N1CC=C` [Example 3, (5Z,5′Z)-2,2′-(ethan-1,2-diyldisulfanyldiyl)bis(5-(pyridine-2-ylmethylene)-3-allyl-3,5-dihydro-4H-imidazole-4-on)] yielded a melting point of 187 °C. The IC50 against telomerase came to 2000 nM.

(Values after patent US20130109861A1, “TELOMERASE INHIBITORS AND A METHOD FOR THE PREPARATION THEREOF” (GOSUDARSTVENNOE UCHEBNO-NAUCHNOE UCHREZHDENIE KHIMICHESKIJJ …, priority 2010, published 2013).)
